Patent US4261892A, “2,4,6-Tris-(substituted-amino)-s-triazines” (American Cyanamid Company, priority 1979, dated 1981)
Where two headings read alike, the source gives them in different places.

Test system: Adjuvant Arthritis In Rats
Assay: Adjuvant-induced arthritis in rats (chronic inflammation accompanied by joint destruction)
Format: in vivo, Royal Hart, Wistar strain rats
Details: for inhibition in vivo at 25 mg/kg / inhibition in vivo at 50 mg/kg / inhibition in vivo at 100 mg/kg / inhibition in vivo at 18.8 mg/kg / inhibition in vivo at 37.5 mg/kg / inhibition in vivo at 75 mg/kg / inhibition in vivo at 150 mg/kg / inhibition in vivo at 200 mg/kg / inhibition in vivo at 400 mg/kg: Rattus norvegicus
Method: Groups of three Royal Hart, Wistar strain rats weighing 200±10 grams each were injected intradermally in the right hind paw with Freund's adjuvant (dried human tubercle bacilli in a mineral oil vehicle) at a dose of 2 mg./kg. of body weight. […] On the 14th and 21st day post challenge the diameter of the injected paw (primary lesion) was measured by micrometer caliper. The volume of inflamed paws were estimated from these measurements and the results are expressed as percent inhibition of swelling as compared to controls. At the same time, the other inflamed sites, such as ears, paws and tail (secondary lesions) were observed and each rat was graded as to degree of inflammation and swelling present. The grading is based on a scale of 0 to 24 where 0 represents a complete absence of induced arthritic nodules and 24 represents the maximum degree of inflammation. The mean grade for each treated group is calculated and the effects of each compound are expressed as percent inhibition of the control grade.

[1] = po, 336 h, read-out: % Inhibition of Swelling (primary lesion) Day 14
[2] = po, 504 h, read-out: % Inhibition of Swelling (primary lesion) Day 21
[3] = oral 25 mg./kg. once daily days 0-13, Day 14
[4] = oral 25 mg./kg. once daily days 0-13, Day 21
[5] = oral 50 mg./kg. once daily days 0-13, Day 14
[6] = oral 50 mg./kg. once daily days 0-13, Day 21
[7] = oral 50 mg./kg. once daily days 0-13
[8] = oral 100 mg./kg. once daily days 0-13, Day 14
[9] = oral 100 mg./kg. once daily days 0-13, Day 21
[10] = oral 100 mg./kg. once daily days 0-13
[11] = 336 h, oral 50 mg./kg. once daily days 0-13, Day 14, read-out: % Inhibition of Swelling (primary lesion) Day 14
[12] = 504 h, oral 50 mg./kg. once daily days 0-13, Day 21, read-out: % Inhibition of Swelling (primary lesion) Day 21
[13] = oral 18.8 mg./kg. once daily days 0-13, Day 14
[14] = oral 18.8 mg./kg. once daily days 0-13, Day 21
[15] = oral 37.5 mg./kg. once daily days 0-13, Day 14
[16] = oral 37.5 mg./kg. once daily days 0-13, Day 21
[17] = oral 75 mg./kg. once daily days 0-13, Day 14
[18] = oral 75 mg./kg. once daily days 0-13, Day 21
[19] = oral 150 mg./kg. once daily days 0-13, Day 14
[20] = oral 150 mg./kg. once daily days 0-13, Day 21
[21] = oral 200 mg./kg. once daily days 0-13, Day 14
[22] = oral 200 mg./kg. once daily days 0-13, Day 21
[23] = oral 400 mg./kg. once daily days 0-13, Day 14
[24] = oral 400 mg./kg. once daily days 0-13, Day 21

SMILES: CC(C)(C)C(C)(C)Nc1nc(NC(C)(C)C(C)(C)C)nc(N2CC3CCC(CC3)C2)n1 [3-{4,6-bis[(1,1,2,2-tetramethylpropyl)amino]-s-triazin-2-yl}-3-azabicyclo[3.2.2]nonane]
- inhibition in vivo at 25 mg/kg [1]: 42%
- inhibition in vivo at 50 mg/kg [1]: 58%
- inhibition in vivo at 100 mg/kg [1]: 74%
- inhibition in vivo at 25 mg/kg [2]: 24%
- inhibition in vivo at 50 mg/kg [2]: 34%
- inhibition in vivo at 100 mg/kg [2]: 41%
- % Inhibition of Control Grade (secondary lesion) Day 14 [3]: 44%
- Mean Weight Gain (grams) Day 14 [3]: 74 grams
- % Inhibition of Control Grade (secondary lesion) Day 21 [4]: 12%
- Mean Weight Gain (grams) Day 21 [4]: 70 grams
- Dead/Treated at 21 Days (oral 25 mg./kg. once daily days 0-13): 1/18
- % Inhibition of Control Grade (secondary lesion) Day 14 [5]: 48%
- Mean Weight Gain (grams) Day 14 [5]: 56 grams
- % Inhibition of Control Grade (secondary lesion) Day 21 [6]: 20%
- Mean Weight Gain (grams) Day 21 [6]: 58 grams
- Dead/Treated at 21 Days [7]: 0/36
- % Inhibition of Control Grade (secondary lesion) Day 14 [8]: 69%
- Mean Weight Gain (grams) Day 14 [8]: 73 grams
- % Inhibition of Control Grade (secondary lesion) Day 21 [9]: 45%
- Mean Weight Gain (grams) Day 21 [9]: 62 grams
- Dead/Treated at 21 Days [10]: 1/18

SMILES: CC(C)(C)CC(C)(C)Nc1nc(Nc2ccc(F)cc2)nc(N2CC3CCC(CC3)C2)n1 [3-[4-p-fluoroanilino-6-(1,1,3,3-tetramethylbutylamino)-s-triazin-2-yl]-3-azabicyclo[3.2.2]nonane]
- inhibition in vivo at 50 mg/kg [1]: 32%
- inhibition in vivo at 50 mg/kg [2]: 18%
- Mean Weight Gain (grams) Day 14 [5]: 68 grams
- Mean Weight Gain (grams) Day 21 [6]: 50 grams
- Dead/Treated at 21 Days [7]: 1/18

SMILES: CC(C)(C)C(C)(C)Nc1nc(NC23CC4CC(CC(C4)C2)C3)nc(NC(C)(C)C(C)(C)C)n1 [N^2-1-adamantyl-N^4,N^6-bis(1,1,2,2-tetramethylpropyl)melamine]
- inhibition in vivo at 50 mg/kg [11]: 47%
- inhibition in vivo at 50 mg/kg [12]: 17%
- Mean Weight Gain (grams) Day 14 [5]: 94 grams
- Mean Weight Gain (grams) Day 21 [6]: 89 grams
- Dead/Treated at 21 Days [7]: 1/12

SMILES: CC(C)(C)C(C)(C)Nc1nc(NC2C3CC4CC(C3)CC2C4)nc(NC(C)(C)C(C)(C)C)n1 (stereo not shown) [N^2-2-adamantyl-N^4,N^6-bis(1,1,2,2-tetramethylpropyl)melamine]
- inhibition in vivo at 50 mg/kg [11]: 79%
- inhibition in vivo at 50 mg/kg [12]: 83%
- Mean Weight Gain (grams) Day 14 [5]: 148 grams
- Mean Weight Gain (grams) Day 21 [6]: 181 grams
- Dead/Treated at 21 Days [7]: 1/3

SMILES: CC(C)(C)CC(C)(C)Nc1nc(NC(C)(C)C)nc(N2CC3CCC(CC3)C2)n1 [2-(tert-butylamino)-4-(1,1,3,3-tetramethylbutylamino)-6-(3-azabicyclo[3.2.2]nonyl)-s-triazine]
- inhibition in vivo at 50 mg/kg [1]: 42%
- inhibition in vivo at 50 mg/kg [2]: 14%
- Mean Weight Gain (grams) Day 14 [5]: 85 grams
- Mean Weight Gain (grams) Day 21 [6]: 87 grams
- Dead/Treated at 21 Days [7]: 3/18

SMILES: CCCCC1C(=O)N(c2ccccc2)N(c2ccccc2)C1=O [Phenylbutazone]
- inhibition in vivo at 18.8 mg/kg (336 h, oral 18.8 mg./kg. once daily days 0-13, Day 14, read-out: % Inhibition of Swelling (primary lesion) Day 14): 31%
- inhibition in vivo at 37.5 mg/kg (336 h, oral 37.5 mg./kg. once daily days 0-13, Day 14, read-out: % Inhibition of Swelling (primary lesion) Day 14): 56%
- inhibition in vivo at 75 mg/kg (336 h, oral 75 mg./kg. once daily days 0-13, Day 14, read-out: % Inhibition of Swelling (primary lesion) Day 14): 62%
- inhibition in vivo at 150 mg/kg (336 h, oral 150 mg./kg. once daily days 0-13, Day 14, read-out: % Inhibition of Swelling (primary lesion) Day 14): 75%
- inhibition in vivo at 18.8 mg/kg (504 h, oral 18.8 mg./kg. once daily days 0-13, Day 21, read-out: % Inhibition of Swelling (primary lesion) Day 21): 7%
- inhibition in vivo at 37.5 mg/kg (504 h, oral 37.5 mg./kg. once daily days 0-13, Day 21, read-out: % Inhibition of Swelling (primary lesion) Day 21): 14%
- inhibition in vivo at 75 mg/kg (504 h, oral 75 mg./kg. once daily days 0-13, Day 21, read-out: % Inhibition of Swelling (primary lesion) Day 21): 28%
- inhibition in vivo at 150 mg/kg (504 h, oral 150 mg./kg. once daily days 0-13, Day 21, read-out: % Inhibition of Swelling (primary lesion) Day 21): 44%
- % Inhibition of Control Grade (secondary lesion) Day 14 [13]: 4%
- Mean Weight Gain (grams) Day 14 [13]: 50 grams
- % Inhibition of Control Grade (secondary lesion) Day 21 [14]: 8%
- Mean Weight Gain (grams) Day 21 [14]: 45 grams
- Dead/Treated at 21 Days (oral 18.8 mg./kg. once daily days 0-13): 2/21
- % Inhibition of Control Grade (secondary lesion) Day 14 [15]: 18%
- Mean Weight Gain (grams) Day 14 [15]: 53 grams
- % Inhibition of Control Grade (secondary lesion) Day 21 [16]: 13%
- Mean Weight Gain (grams) Day 21 [16]: 53 grams
- Dead/Treated at 21 Days (oral 37.5 mg./kg. once daily days 0-13): 5/39
- % Inhibition of Control Grade (secondary lesion) Day 14 [17]: 27%
- Mean Weight Gain (grams) Day 14 [17]: 51 grams
- % Inhibition of Control Grade (secondary lesion) Day 21 [18]: 15%
- Mean Weight Gain (grams) Day 21 [18]: 50 grams
- Dead/Treated at 21 Days (oral 75 mg./kg. once daily days 0-13): 2/39
- % Inhibition of Control Grade (secondary lesion) Day 14 [19]: 54%
- Mean Weight Gain (grams) Day 14 [19]: 40 grams
- % Inhibition of Control Grade (secondary lesion) Day 21 [20]: 31%
- Mean Weight Gain (grams) Day 21 [20]: 50 grams
- Dead/Treated at 21 Days (oral 150 mg./kg. once daily days 0-13): 2/27

SMILES: CC(=O)Oc1ccccc1C(=O)O [Aspirin]
- inhibition in vivo at 50 mg/kg [11]: 23%
- inhibition in vivo at 100 mg/kg (336 h, oral 100 mg./kg. once daily days 0-13, Day 14, read-out: % Inhibition of Swelling (primary lesion) Day 14): 36%
- inhibition in vivo at 200 mg/kg (336 h, oral 200 mg./kg. once daily days 0-13, Day 14, read-out: % Inhibition of Swelling (primary lesion) Day 14): 48%
- inhibition in vivo at 400 mg/kg (336 h, oral 400 mg./kg. once daily days 0-13, Day 14, read-out: % Inhibition of Swelling (primary lesion) Day 14): 73%
- inhibition in vivo at 50 mg/kg [12]: 3%
- inhibition in vivo at 100 mg/kg (504 h, oral 100 mg./kg. once daily days 0-13, Day 21, read-out: % Inhibition of Swelling (primary lesion) Day 21): 13%
- inhibition in vivo at 200 mg/kg (504 h, oral 200 mg./kg. once daily days 0-13, Day 21, read-out: % Inhibition of Swelling (primary lesion) Day 21): 27%
- inhibition in vivo at 400 mg/kg (504 h, oral 400 mg./kg. once daily days 0-13, Day 21, read-out: % Inhibition of Swelling (primary lesion) Day 21): 48%
- % Inhibition of Control Grade (secondary lesion) Day 14 [5]: 12%
- Mean Weight Gain (grams) Day 14 [5]: 56 grams
- % Inhibition of Control Grade (secondary lesion) Day 21 [6]: 9%
- Mean Weight Gain (grams) Day 21 [6]: 44 grams
- Dead/Treated at 21 Days [7]: 2/21
- % Inhibition of Control Grade (secondary lesion) Day 14 [8]: 19%
- Mean Weight Gain (grams) Day 14 [8]: 48 grams
- % Inhibition of Control Grade (secondary lesion) Day 21 [9]: 8%
- Mean Weight Gain (grams) Day 21 [9]: 53 grams
- Dead/Treated at 21 Days [10]: 18/63
- % Inhibition of Control Grade (secondary lesion) Day 14 [21]: 26%
- Mean Weight Gain (grams) Day 14 [21]: 40 grams
- % Inhibition of Control Grade (secondary lesion) Day 21 [22]: 17%
- Mean Weight Gain (grams) Day 21 [22]: 44 grams
- Dead/Treated at 21 Days (oral 200 mg./kg. once daily days 0-13): 10/66
- % Inhibition of Control Grade (secondary lesion) Day 14 [23]: 58%
- Mean Weight Gain (grams) Day 14 [23]: 41 grams
- % Inhibition of Control Grade (secondary lesion) Day 21 [24]: 45%
- Mean Weight Gain (grams) Day 21 [24]: 55 grams
- Dead/Treated at 21 Days (oral 400 mg./kg. once daily days 0-13): 18/57
